Data: PubChem BioAssay AID2060898 (Molecular Pharmacology Branch, DTP, NCI, 2025)

Test system: 616215-338-R-J1-PDC complex spheroid viability
Experiment: Anticancer human tumor 616215-338-R-J1-PDC patient-derived colon adenocarcinoma cell line growth inhibition [RAS]
Details: for IC50: curve of first compound; for viability, T/C: stronger effect = lower value
Outline: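 Tumour cells grown as complex spheroids with HUVEC endothelial cells and mesenchymal stem cells, treated with RAS pathway inhibitor combinations. Each agent spans half-log steps from near clinical Cmax, or 10 microM where Cmax is unknown.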

[1] = second compound 0.000949 µM, first compound 0.00316 µM
[2] = second compound 0.000949 µM, first compound 0.01 µM
[3] = second compound 0.000949 µM, first compound 0.0316 µM
[4] = second compound 0.000949 µM, first compound 0.1 µM
[5] = second compound 0.000949 µM, first compound 0.316 µM
[6] = second compound 0.000949 µM, first compound 1 µM
[7] = second compound 0.003 µM, first compound 0.00316 µM
[8] = second compound 0.003 µM, first compound 0.01 µM
[9] = second compound 0.003 µM, first compound 0.0316 µM
[10] = second compound 0.003 µM, first compound 0.1 µM
[11] = second compound 0.003 µM, first compound 0.316 µM
[12] = second compound 0.003 µM, first compound 1 µM
[13] = second compound 0.00949 µM, first compound 0.00316 µM
[14] = second compound 0.00949 µM, first compound 0.01 µM
[15] = second compound 0.00949 µM, first compound 0.0316 µM
[16] = second compound 0.00949 µM, first compound 0.1 µM
[17] = second compound 0.00949 µM, first compound 0.316 µM
[18] = second compound 0.00949 µM, first compound 1 µM
[19] = second compound 0.03 µM, first compound 0.00316 µM
[20] = second compound 0.03 µM, first compound 0.01 µM
[21] = second compound 0.03 µM, first compound 0.0316 µM
[22] = second compound 0.03 µM, first compound 0.1 µM
[23] = second compound 0.03 µM, first compound 0.316 µM
[24] = second compound 0.03 µM, first compound 1 µM
[25] = second compound 0.0949 µM, first compound 0.00316 µM
[26] = second compound 0.0949 µM, first compound 0.01 µM
[27] = second compound 0.0949 µM, first compound 0.0316 µM
[28] = second compound 0.0949 µM, first compound 0.1 µM
[29] = second compound 0.0949 µM, first compound 0.316 µM
[30] = second compound 0.0949 µM, first compound 1 µM
[31] = second compound 0.3 µM, first compound 0.00316 µM
[32] = second compound 0.3 µM, first compound 0.01 µM
[33] = second compound 0.3 µM, first compound 0.0316 µM
[34] = second compound 0.3 µM, first compound 0.1 µM
[35] = second compound 0.3 µM, first compound 0.316 µM
[36] = second compound 0.3 µM, first compound 1 µM
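Further: spheroids exposed to agents for seven days before viability readout.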
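Wherever viability, T/C is given: 100% = DMSO vehicle control viability.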

Question: How did the IC50 (second compound 0.000949 µM) turn out when `C=CC(=O)Nc1cc(Nc2nccc(-c3cn(C)c4ccccc34)n2)c(OC)cc1N(C)CCN(C)C` + CCn1c(-c2cccnc2C(C)OC)c2c3cc(ccc31)N1CCOC(CC(NC(=O)C(C(C)C)N(C)C(=O)C3(F)CCN(C(=O)C#CC(C)(C)N(C)C)CC3)C(=O)N3CCCC(N3)C(=O)OCC(C)(C)C2)C1 was run?
Answer: > 1000 nM

Question: And the IC50 (second compound 0.003 µM)?
Answer: > 1000 nM

Question: What about the IC50 (second compound 0.00949 µM) of the same molecule?
Answer: > 1000 nM

Question: What about the IC50 (second compound 0.03 µM) of the same molecule?
Answer: > 1000 nM

Question: And the IC50 (second compound 0.0949 µM)?
Answer: > 1000 nM

Question: And the IC50 (second compound 0.3 µM)?
Answer: > 1000 nM

Question: And the viability, T/C [1]?
Answer: 98.4%

Question: What about the viability, T/C [2] of the same molecule?
Answer: 105%

Question: And the viability, T/C [3]?
Answer: 116%

Question: What about the viability, T/C [4] of the same molecule?
Answer: 103%

Question: And the viability, T/C [5]?
Answer: 102%

Question: And the viability, T/C [6]?
Answer: 68.2%

Question: And the viability, T/C [7]?
Answer: 103%

Question: And the viability, T/C [8]?
Answer: 106%

Question: What about the viability, T/C [9] of the same molecule?
Answer: 99.8%

Question: What about the viability, T/C [10] of the same molecule?
Answer: 112%

Question: What about the viability, T/C [11] of the same molecule?
Answer: 110%

Question: What about the viability, T/C [12] of the same molecule?
Answer: 66.2%

Question: What about the viability, T/C [13] of the same molecule?
Answer: 100%

Question: And the viability, T/C [14]?
Answer: 99.6%

Question: What about the viability, T/C [15] of the same molecule?
Answer: 108%

Question: And the viability, T/C [16]?
Answer: 110%

Question: And the viability, T/C [17]?
Answer: 107%

Question: And the viability, T/C [18]?
Answer: 80%

Question: And the viability, T/C [19]?
Answer: 109%

Question: What about the viability, T/C [20] of the same molecule?
Answer: 105%

Question: What about the viability, T/C [21] of the same molecule?
Answer: 100%

Question: And the viability, T/C [22]?
Answer: 110%

Question: And the viability, T/C [23]?
Answer: 104%

Question: And the viability, T/C [24]?
Answer: 62.7%

Question: What about the viability, T/C [25] of the same molecule?
Answer: 105%

Question: What about the viability, T/C [26] of the same molecule?
Answer: 110%

Question: And the viability, T/C [27]?
Answer: 111%

Question: And the viability, T/C [28]?
Answer: 112%

Question: What about the viability, T/C [29] of the same molecule?
Answer: 103%

Question: And the viability, T/C [30]?
Answer: 66.9%

Question: And the viability, T/C [31]?
Answer: 97.1%

Question: What about the viability, T/C [32] of the same molecule?
Answer: 104%

Question: And the viability, T/C [33]?
Answer: 95.9%

Question: And the viability, T/C [34]?
Answer: 89.9%

Question: And the viability, T/C [35]?
Answer: 97.2%

Question: What about the viability, T/C [36] of the same molecule?
Answer: 59%

Question: What does the source list for `O=C(c1ccc(F)c(F)c1Nc1ccc(I)cc1F)N1CC(O)([C@@H]2CCCCN2)C1` + CCn1c(-c2cccnc2C(C)OC)c2c3cc(ccc31)N1CCOC(CC(NC(=O)C(C(C)C)N(C)C(=O)C3(F)CCN(C(=O)C#CC(C)(C)N(C)C)CC3)C(=O)N3CCCC(N3)C(=O)OCC(C)(C)C2)C1?
Answer: IC50 (second compound 0.000949 µM): 64.9 nM; IC50 (second compound 0.003 µM): 53.7 nM; IC50 (second compound 0.00949 µM): 57.8 nM; IC50 (second compound 0.03 µM): 53.1 nM; IC50 (second compound 0.0949 µM): 47.5 nM; IC50 (second compound 0.3 µM): 14.8 nM; viability, T/C [1]: 108%; viability, T/C [2]: 99.2%; viability, T/C [3]: 70.6%; viability, T/C [4]: 34.7%; viability, T/C [5]: 21.4%; viability, T/C [6]: 4.49%; viability, T/C [7]: 112%; viability, T/C [8]: 109%; viability, T/C [9]: 63.3%; viability, T/C [10]: 30.5%; viability, T/C [11]: 18%; viability, T/C [12]: 2.97%; viability, T/C [13]: 105%; viability, T/C [14]: 109%; viability, T/C [15]: 61.5%; viability, T/C [16]: 34.8%; viability, T/C [17]: 22.2%; viability, T/C [18]: 3.61%; viability, T/C [19]: 125%; viability, T/C [20]: 93.9%; viability, T/C [21]: 61.8%; viability, T/C [22]: 34.7%; viability, T/C [23]: 16.9%; viability, T/C [24]: 2.6%; viability, T/C [25]: 101%; viability, T/C [26]: 87.9%; viability, T/C [27]: 59.2%; viability, T/C [28]: 31.2%; viability, T/C [29]: 13.3%; viability, T/C [30]: 2.27%; viability, T/C [31]: 85.8%; viability, T/C [32]: 58.6%; viability, T/C [33]: 32.8%; viability, T/C [34]: 20.4%; viability, T/C [35]: 5.09%; viability, T/C [36]: 1.18%
